# Laboratory results taken from the supplement of paper PMC6580486.
# Tested on: U23674 (mouse alveolar rhabdomyosarcoma primary culture)
# 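Further: alveolar rhabdomyosarcoma tumor culture.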
row,Compound,IC50 cell viability [µM]
1,Nc1nc(-c2ccc3c(c2)C(=Cc2cc(Br)c(O)c(Br)c2)C(=O)N3)cs1,> 10
2,ON=C1CCc2cc(-c3nc(C4CCNCC4)[nH]c3-c3ccncc3)ccc21,> 10
3,COc1ccc(-c2cc(-c3cn[nH]c3-c3ccccn3)ccn2)cc1,> 10
4,CCCN1CCC(Oc2cc(Nc3nc(Nc4cccc(F)c4C(N)=O)c4cc[nH]c4n3)c(OC)cc2Cl)CC1,3.2
5,Fc1ccc(-c2nc3n(c2-c2ccncc2)CCS3)cc1,> 10
6,Cc1nc(-c2ccccc2)n2nc(NCCCN3CCOCC3)ncc12,> 10
7,NC(=O)c1cccc(Nc2nccc(Nc3cccc(F)c3)n2)c1,> 10
8,CCN(CC)S(=O)(=O)c1ccc(OC)c(Nc2ncc(-c3ccccc3)o2)c1,> 10
9,Nc1ncnc2occ(-c3ccc(NC(=O)Nc4cccc(C(F)(F)F)c4)cc3)c12,5.2
10,COc1ccc(-c2oc3ncnc(N)c3c2-c2ccc(NC(=O)Nc3cc(C(F)(F)F)ccc3F)cc2)cc1,> 10
11,O=C(Nc1n[nH]c2nc(-c3ccco3)c(Br)cc12)C1CC1,> 10
12,Cc1c2ccc(N(C)c3ccnc(Nc4cccc(S(N)(=O)=O)c4)n3)cc2nn1C,> 10
13,Fc1ccc(-c2ncn(C3CCNCC3)c2-c2ccnc(Oc3ccc(Oc4ccccc4)cc3)n2)cc1,2
14,Fc1ccc(-c2ncn(C3CCNCC3)c2-c2ccnc(Oc3ccccc3)n2)cc1,3.3
15,NCc1ccc(-n2c(-c3nonc3N)nc3cnccc32)cc1,3.9
16,OCCCNc1nccc(-c2c(-c3ccc(F)cc3)nn3cc(C(F)(F)F)ccc23)n1,> 10
17,Cc1ccc(NC(=O)c2ccnc(N3CCCC3)c2)cc1-c1ccc(C(=O)NCC2CC2)cc1,> 10
18,Cc1cc(O)cc(C)c1/C=C/c1cncc(C(N)=O)c1,> 10
19,COc1c(C(N)=O)cc(-c2ccc(Cl)cc2)cc1-c1ccc(S(N)(=O)=O)cc1,> 10
20,COc1cc(/C=N/Nc2ncnc3[nH]ncc23)ccc1O,> 10
21,CC(C)(CO)CNC(=O)c1ccc2[nH]c(O)c(N=Nc3ccc(S(N)(=O)=O)cc3)c2c1,> 10
22,Cc1nnc(-c2ccc(C)c(-c3ccc(C(=O)NCc4ccc(Cl)cc4)cc3)c2)o1,> 10
23,Cc1ccc(NC(=O)c2ccoc2)cc1-c1ccc(C(=O)NCC2CC2)cc1,> 10
24,COc1ccccc1Nc1ncc(-c2ccccc2)o1,> 10
25,Nc1nonc1-c1nc2cnccc2n1C1CCCCC1,> 10

row,Compound,IC50 cell viability [µM]
1,COc1ccc(Nc2ncc(-c3ccccc3)o2)cc1OC,> 10
2,CCS(=O)(=O)c1ccc(OC)c(Nc2ncc(-c3cccc(F)c3)o2)c1,> 10
3,CCn1c(-c2nonc2N)nc2c(C#CC(C)(C)O)ncc(OCC3CCNCC3)c21,> 10
4,CCOc1nccc2c1nc(-c1nonc1N)n2CC,> 10
5,Nc1nccc(-c2c(-c3ccc(F)cc3)ncn2CCCN2CCOCC2)n1,> 10
6,COc1cc(C)c(N(C)C(=O)CN(C)C)cc1Nc1nc(Nc2cccc(F)c2C(N)=O)c2cc[nH]c2n1,> 10
7,[O-][S+]1CCN(Cc2ccc(-c3ccc4ncnc(Nc5ccc(OCc6ccccc6)c(F)c5)c4c3)o2)CC1,> 10
8,COc1ccc2ncn(-c3cc(O[C@H](C)c4ccccc4Cl)c(C(N)=O)s3)c2c1,2
9,CN(c1ccc(NC(=O)NCCN2CCOCC2)cc1)c1ccnc(Nc2ccc(CS(C)(=O)=O)cc2)n1,> 10
10,C[C@@H](Oc1cc(-n2cnc3ccc(OC4CCN(C)CC4)cc32)sc1C(N)=O)c1ccccc1Cl,0.9
11,O=C1NC(=O)C(c2cccc(Cl)c2)=C1Nc1ccc(Cl)c(C(=O)O)c1,> 10
12,CS(=O)(=O)CCNCc1ccc(-c2ccc3ncnc(Nc4ccc(OCc5ccccc5)c(Br)c4)c3c2)o1,> 10
13,COc1cc(N2CCN(C(C)C)CC2)ccc1Nc1nc(Nc2ccc(F)cc2C(=O)NC[C@@H](O)CO)c2cc[nH]c2n1,> 10
14,Cc1cc(O)cc(C)c1/C=C/c1cncc(C(=O)OC(C)(C)C)c1,> 10
15,COc1ccc(-c2cc3c(N)ncnc3o2)cc1,> 10
16,COc1ccc(-c2ccncc2)cc1C(N)=O,> 10
17,c1ccc(COc2ccc(Nc3ncnc4ccc(-c5ccco5)cc34)cc2)cc1,> 10
18,CN(C)c1ccc2[nH]c(O)c(C=Nc3ccc(S(N)(=O)=O)cc3)c2c1,> 10
19,COc1cc(Nc2nccc(-c3cnn4ncccc34)n2)cc(OC)c1,4
20,CCn1c(-c2nonc2N)nc2c(C#CC(C)(C)O)ncc(OC3CCNCC3)c21,> 10
21,N#Cc1c(NC(=O)CN2CCOCC2)sc2c1CCCC2,> 10
22,O=C(Nc1n[nH]c2nnc(-c3cccnc3)cc12)C1CC1,> 10
23,CN1CCC(n2cnc(-c3ccc(F)cc3)c2-c2ccnc(N)n2)CC1,> 10
24,COc1ccccc1-c1cc(/C=C2\C(=O)Nc3ncc(Br)cc32)cc(Br)c1O,> 10
25,COc1cccc(-n2ncc3c(N/N=C/c4ccc(S(C)(=O)=O)cc4)ncnc32)c1,> 10

row,Compound,IC50 cell viability [µM]
1,CCC(=O)Nc1ccc(C)c(-c2ccc(C(=O)NCC3CC3)cc2)c1,> 10
2,O=C(Nc1n[nH]c2cc(-c3ccccc3)ccc12)C1CC1,> 10
3,O=C1NC(=O)C(c2ccccc2Cl)=C1Nc1cccc(O)c1,2
4,CS(=O)(=O)CCNCc1ccc(-c2ccc3ncnc(Nc4ccc(OCc5ccccc5)cc4)c3c2)o1,> 10
5,CC(C)c1ccc2c(N=Nc3ccc(S(N)(=O)=O)cc3)c(O)[nH]c2c1,> 10
6,CNC(=O)c1cc(-c2ccc(F)cc2)cc(-c2ccc(S(=O)(=O)N3CCCC3)cc2)c1N,> 10
7,c1ccc(-c2[nH]ncc2-c2ccnc(-c3ccc(OCCn4ccnc4)cc3)c2)nc1,> 10
8,NS(=O)(=O)c1ccc(-c2ccc3c(NC(=O)C4CC4)n[nH]c3c2)cc1,> 10
9,COc1cccc(-n2ncc3c(N/N=C/c4ccc(F)cc4)ncnc32)c1,> 10
10,CCS(=O)(=O)c1ccc(OC)c(Nc2ncc(-c3cccc(-c4ccccc4F)c3)o2)c1,> 10
11,COc1ccc(-c2nn3ncccc3c2-c2ccnc(Nc3cccc(C(F)(F)F)c3)n2)cc1,> 10
12,COc1cc(Nc2nccc(Nc3ccc4c(C)[nH]nc4c3)n2)cc(OC)c1OC,5.6
13,CN1CCN(C(=O)c2ccc(NC(=O)Nc3ccc(N(C)c4ccnc(Nc5ccc(CS(C)(=O)=O)cc5)n4)cc3)cc2)CC1,> 10
14,CCn1c(-c2nonc2N)nc2cncc(C(=O)NCCNC)c21,> 10
15,c1cnn2ncc(-c3ccnc(NCCCN4CCOCC4)n3)c2c1,> 10
16,CCNC(=O)O[C@H]1CN[C@H](C#Cc2cc3ncnc(Nc4ccc(OCc5cccc(F)c5)c(Cl)c4)c3s2)C1,> 10
17,CNC(=O)c1ncccc1Nc1nc(Nc2cc3c(cc2OC)CCCN3C(=O)CN(C)C)nc2[nH]ccc12,> 10
18,COc1cccc(/C=N/Nc2ncnc3c2cnn3-c2cccc(OC)c2)c1,> 10
19,Cc1cccc2c(N=Nc3ccc(S(N)(=O)=O)cc3)c(O)[nH]c12,> 10
20,CNC(=O)c1cncc(/C=C/c2c(C)cccc2C)c1,> 10
21,CC1=C(C(=O)Nc2ccc3n[nH]c(C)c3c2)C(c2ccc(C(F)(F)F)cc2)CC(=O)N1 (configuration not stated),> 10
22,Cc1ccc2c(-c3ccnc(Nc4ccc5c(c4)OCCO5)n3)c(-c3ccc(C(F)(F)F)cc3)nn2n1,> 10
23,COc1cc2c(cc1Nc1nc(Nc3cccc(F)c3C(N)=O)c3cc[nH]c3n1)N(C(=O)CN1CCN(C(C)C)CC1)CC2,3.2
24,COc1cc2ncn(-c3cc(OCc4cccs4)c(C(N)=O)s3)c2cc1OC,> 10
25,Cc1ccc(NC(=O)CC2CC2)cc1-c1ccc(C(=O)NCC2CC2)cc1,3.4

row,Compound,IC50 cell viability [µM]
1,c1ccc(-c2[nH]ncc2-c2ccnc(-c3ccc(OCCN4CCOCC4)cc3)c2)nc1,> 10
2,COC(=O)c1sc(-n2cnc3cc(OC)c(OC)cc32)cc1OCc1ccccc1C(F)(F)F,> 10
3,CC(=O)Nc1cccc(C#Cc2cncnc2Nc2ccc(OCc3cccc(F)c3)c(Cl)c2)n1,> 10
4,CNC(=O)Oc1cc(C)c(/C=C/c2cncc(C(=O)NC)c2)c(C)c1,> 10
5,COc1cc2ncn(-c3cc(OCCc4ccccc4)c(C(N)=O)s3)c2cc1OC,> 10
6,COc1cccc(-n2ncc3c(N/N=C/c4cccc(F)c4)ncnc32)c1,> 10
7,c1ccc(-c2nc3n(c2-c2ccc4c(c2)OCO4)CCC3)nc1,> 10
8,O=C1NC(=O)C(N2CCc3ccccc32)=C1c1ccc(Cl)cc1,> 10
9,CCn1c(-c2nonc2N)nc2cnc(Oc3cccc(NC(=O)c4ccc(OCCN5CCOCC5)cc4)c3)cc21,> 10
10,COc1cc2ncn(-c3cc(OCc4ccccc4S(C)(=O)=O)c(C#N)s3)c2cc1OC,> 10
11,NC(=O)c1cccc(Nc2nccc(Nc3cccc4[nH]ncc34)n2)c1,> 10
12,Cc1ccc(C(=O)NC(C)C)cc1-c1ccc(C(=O)NCC2CC2)cc1,> 10
13,Nc1nc(-c2ccc(F)cc2)c(-c2ccc3ncccc3n2)s1,> 10
14,NC(=O)Cc1ccccc1Oc1nccc(-c2c(-c3ccc(F)cc3)ncn2C2CCNCC2)n1,> 10
15,O=C(NCC1CC1)c1ccc(-c2cccc(C(=O)NC3CC3)c2)cc1,> 10
16,COC(=O)Nc1nc2ccc(S(=O)(=O)c3ccc(NC(=O)Nc4cc(C(F)(F)F)ccc4F)cc3)cc2[nH]1,> 10
17,Cc1cc(-c2ccccn2)cc(C)c1/C=C/c1cncc(-c2nn[nH]n2)c1,> 10
18,CS(=O)(=O)CCN(CC#N)Cc1ccc(-c2ccc3ncnc(Nc4ccc(OCc5cccc(F)c5)c(Cl)c4)c3c2)o1,> 10
19,COc1ccc(-c2ccc3c(NC(=O)C4CC4)n[nH]c3n2)cc1,> 10
20,CN(C)C(=O)O[C@@H]1CN[C@@H](C#Cc2cc3ncnc(Nc4ccc(OCc5cccc(F)c5)c(Cl)c4)c3s2)C1,> 10
21,NS(=O)(=O)c1ccc(N=Nc2c(O)[nH]c3ccc(C(=O)NCc4ccncc4)cc23)cc1,> 10
22,COc1cc(N2CCN(C(C)C)CC2)ccc1Nc1nc(Nc2cccc(F)c2C(=O)O)c2cc[nH]c2n1,> 10
